In US11124500B2, “Disubstituted pyrazole compounds” (Eli Lilly and Company, priority 2019, dated 2021):

Key:
Pharmacokinetics in dogs = type: in vivo; details: beagle, plasma, dog, fed; for bioavailability: PO 2 or 3 mg/kg vs IV 1 mg/kg
Experimental: (§1) Liquid Chromatography with Tandem Mass Spectrometry (LC-MS/MS) Method for Pharmacokinetic Assays: Samples are extracted using a protein precipitation by adding 180 μL of MeOH:ACN (1:1, v/v) containing an internal standard to 50 μL of plasma. Samples are then diluted with MeOH:Water (1:1, v/v) to get concentrations within standard curve range. Diluted samples are analyzed by LC-MS/MS using a Sciex API 4000 triple quadrupole mass spectrometer (Applied Biosystems/MDS; Foster City, Calif.) equipped with a TurboIonSpray interface, and operated in positive ion mode. The analytes are chromatographically separated using a ECHELON C18 4 um 20×2.1 mm column. LC conditions are Water/1 M ammonium bicarbonate, (2000:10, v/v) (Mobile Phase A), and MeOH/1 M ammonium bicarbonate, (2000:10, v/v) (Mobile Phase B).
(§2) The compound is administered by a single oral (PO; 2 or 3 mg/kg; volume of 2 mL/kg) or intravenous (IV; 1 mg/kg; volume of 1 mL/kg) dose in vehicle. Blood is collected from each animal at multiple time points between 0 and up to 72 hours post-dosage. The plasma concentrations of Example 1 and Example 2 are determined by a LC-MS/MS method as described above.

human KHK-C = human KHK-C (Homo sapiens (Human), UniProt P50053); assay: KHK enzyme activity assay, human KHK-C (F1P production, RapidFire MS); type: biochemical; details: fructose 250 μM, ATP 150 μM; average ± SEM; read-out: hKHK-C IC50
Experimental: (§3) KHK Enzyme Activity Assay for Human KHK-C and Human KHK-A
(§4) The intrinsic potency for inhibition of KHK C or A activity may be measured using an enzymatic assay which measures the production of FIP. Compounds are prepared in DMSO and tested in a 10-point concentration curve, to create 3-fold serial dilutions of the compounds in a 96-well plate ranging from 20 μM to 1.02 nM. Enzyme is prepared in assay buffer [50 mM 4-(2-hydroxyethyl)piperazine-1-ethanesulfonic acid (HEPES), 10 mM potassium chloride, 100 mM magnesium chloride, 2 mM tris(2-carboxyethyl)phosphine (TCEP), 0.01% n-octyl glucoside] and incubated with compounds at RT for 15 min. The reaction is carried out in 100 μL volumes containing substrate concentrations of fructose (250 μM for KHK-C assay and 1.25 mM for KHK-A assay) and ATP (150 μM for both isoforms); which are further incubated at RT for 20 min. The reaction is then halted by the addition of stop buffer; consisting of 0.2% formic acid and 1 μg/ml ^13C6-fructose-6-phosphate (^13C6-F6P) internal standard. Plates are stored in −20° C. until RapidFire MS analysis.
(§5) RapidFire MS Analysis for Quantitation of F1P
(§6) An Agilent 300 RapidFire automated extraction system (Agilent, Santa Clara, Calif.) with three HPLC quaternary pumps is coupled to an Agilent 6495 triple quadrupole mass spectrometer (Agilent Technologies, Santa Clara, Calif.) equipped with an electrospray ionization (ESI) interface source. The RapidFire Mass Spec system is equipped with a reusable RapidFire C18 (type C) solid-phase extraction (SPE) cartridge (G9205 Å).
(§7) Solvent A, used for sample loading and washing, is 6 mM octylamine (Acros Organics 129495000) brought to pH 5.0 using acetic acid. Solvent B, used for sample elution, is 20% water in ACN containing 0.1% formic acid. Samples are sequentially analyzed by aspirating 10 μL onto the collection loop under vacuum directly from multiwell plates. The 10 μL of sample is loaded onto the C18 cartridge and washed using solvent A at a flow rate of 1.25 mL/min for 5000 ms. The retained analytes are then eluted to the mass spectrometer using solvent B at a flow rate of 1.25 mL/min for 5000 ms. The system is re-equilibrated using solvent at flow rate of 1.25 mL/min for 2000 ms.
(§8) The triple quadrupole mass spectrometer is equipped with an ESI source and analytes are monitored using selected reaction monitoring (SRM) in negative mode [M−H]−. F1P is monitored at m/z 259.02/96.9 and ^13C6-fructose-6-phosphate is monitored at m/z 264.99/97. The area ratio values for F1P is calculated using ^13C6-fructose-6-phospate as internal standard.

human KHK-A = human KHK-A (Homo sapiens (Human), UniProt P50053); assay: KHK enzyme activity assay, human KHK-A (F1P production, RapidFire MS); type: biochemical; details: fructose 1.25 mM, ATP 150 μM; average ± SEM; read-out: hKHK-A IC50
Experimental: as §3, §4, §5, §6, §7, §8

[1] = Pharmacokinetics in Sprague Dawley rats; type: in vivo; details: plasma, rat, fasted; for bioavailability: PO 2 or 3 mg/kg vs IV 1 mg/kg
Experimental: as §1
Pharmacokinetics in Sprague Dawley Rats
as §2, with “of 10” for “of 2”, “to 48” for “to 72”

[2] = administered for 6 weeks, subjects with NAFLD; cited from earlier work

human KHK-C, sequence (P50053 whole entry): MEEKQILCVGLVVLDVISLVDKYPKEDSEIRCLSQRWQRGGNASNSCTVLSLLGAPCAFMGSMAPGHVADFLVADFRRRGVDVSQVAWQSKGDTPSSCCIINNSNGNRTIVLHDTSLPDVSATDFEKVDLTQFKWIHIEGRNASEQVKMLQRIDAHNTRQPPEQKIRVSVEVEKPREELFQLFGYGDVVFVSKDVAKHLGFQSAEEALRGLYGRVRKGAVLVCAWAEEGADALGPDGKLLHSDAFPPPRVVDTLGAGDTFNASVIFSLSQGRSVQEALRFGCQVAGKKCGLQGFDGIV
human KHK-A, sequence (P50053 other isoform, or with tags, fused parts or gaps): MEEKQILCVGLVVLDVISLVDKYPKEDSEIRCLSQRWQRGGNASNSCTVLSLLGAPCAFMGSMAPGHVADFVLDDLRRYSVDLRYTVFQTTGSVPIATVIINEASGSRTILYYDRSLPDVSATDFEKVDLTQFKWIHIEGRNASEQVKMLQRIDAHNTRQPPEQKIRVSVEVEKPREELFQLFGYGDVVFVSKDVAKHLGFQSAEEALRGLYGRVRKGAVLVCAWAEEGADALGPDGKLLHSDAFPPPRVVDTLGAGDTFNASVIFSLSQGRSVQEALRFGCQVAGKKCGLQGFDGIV

| IC50 (human KHK-C) | IC50 (human KHK-A) | Structure (SMILES) | other results |
| --- | --- | --- | --- |
| 20.7 ± 3.88 nM | 24.2 ± 2.9 nM | C[C@H]1CCN1c1nc(-c2cnn(CC(=O)N3CCNCC3)c2)cc(C(F)(F)F)n1 [Example 1, 2-[4-[2-[(2S)-2-Methylazetidin-1-yl]-6-(trifluoromethyl)pyrimidin-4-yl]pyrazol-1-yl]-1-piperazin-1-yl-ethanone] | bioavailability (Pharmacokinetics in dogs): 87%; clearance (Pharmacokinetics in dogs; single IV dose 1 mg/kg): 3.41 mL/min/kg; half-life (Pharmacokinetics in dogs; single IV dose 1 mg/kg): 28 h; half-life (Pharmacokinetics in dogs; single PO dose 2 or 3 mg/kg): 36.6 h; bioavailability [1]: 83%; clearance ([1]; single IV dose 1 mg/kg): 5.86 mL/min/kg; half-life ([1]; single IV dose 1 mg/kg): 12.8 h; half-life ([1]; single PO dose 2 or 3 mg/kg): 12.9 h |
| 68 nM | 51 nM | C[C@H]1CCN1c1nc(-c2cnn(CC(=O)NCCN)c2)cc(C(F)(F)F)n1 [Example 28, N-(2-Aminoethyl)-2-[4-[2-[(2S)-2-methylazetidin-1-yl]-6-(trifluoromethyl)pyrimidin-4-yl]pyrazol-1-yl]acetamide] | – |
| 38.6 nM | 103 nM | C[C@H]1CN(C(=O)Cn2cc(-c3cc(C(F)(F)F)nc(N4CC[C@@H]4C)n3)cn2)CCN1 [Example 29, 2-[4-[2-[(2S)-2-Methylazetidin-1-yl]-6-(trifluoromethyl)pyrimidin-4-yl]pyrazol-1-yl]-1-[(3S)-3-methylpiperazin-1-yl]ethanone] | – |
| 46.3 nM | 57.8 nM | C[C@H]1CNCCN1C(=O)Cn1cc(-c2cc(C(F)(F)F)nc(N3CC[C@@H]3C)n2)cn1 [Example 30, 2-[4-[2-[(2S)-2-Methylazetidin-1-yl]-6-(trifluoromethyl)pyrimidin-4-yl]pyrazol-1-yl]-1-[(2S)-2-methylpiperazin-1-yl]ethanone] | – |
| 34.7 nM | 70.5 nM | C[C@H]1CCN1c1nc(-c2cnn(CC(=O)N3CCNC(C)(C)C3)c2)cc(C(F)(F)F)n1 [Example 31, 1-(3,3-Dimethylpiperazin-1-yl)-2-[4-[2-[(2S)-2-methylazetidin-1-yl]-6-(trifluoromethyl)pyrimidin-4-yl]pyrazol-1-yl]ethanone] | – |
| 13.3 nM | 41.5 nM | C[C@@H]1CN(C(=O)Cn2cc(-c3cc(C(F)(F)F)nc(N4CC[C@@H]4C)n3)cn2)[C@@H](C)CN1 [Example 32, 1-[(2S,5R)-2,5-Dimethylpiperazin-1-yl]-2-[4-[2-[(2S)-2-methylazetidin-1-yl]-6-(trifluoromethyl)pyrimidin-4-yl]pyrazol-1-yl]ethanone] | – |
| 4.9 ± 1.31 nM | 3.63 ± 1.13 nM | C[C@H]1CCN1c1nc(-c2cnn(C3CNC3)c2)cc(C(F)(F)F)n1 [Example 33, 4-[1-(Azetidin-3-yl)pyrazol-4-yl]-2-[(2S)-2-methylazetidin-1-yl]-6-(trifluoromethyl)pyrimidine] | – |
| 3.71 ± 0.178 nM | 5.41 ± 6.13 nM | C[C@H]1CCN1c1nc(-c2cnn(C3CN(C)C3)c2)cc(C(F)(F)F)n1 [Example 34, 2-[(2S)-2-Methylazetidin-1-yl]-4-[1-(1-methylazetidin-3-yl)pyrazol-4-yl]-6-(trifluoromethyl)pyrimidine] | – |

Second part, the compound before the results:

| Structure (SMILES) | IC50 (human KHK-C) | IC50 (human KHK-A) | other results |
| --- | --- | --- | --- |
| OC[C@H]1CCN1c1nc(-c2cnn(C3CCNCC3)c2)cc(C(F)(F)F)n1 [Example 2, [(2R)-1-[4-[1-(4-Piperidyl)pyrazol-4-yl]-6-(trifluoromethyl)pyrimidin-2-yl]azetidin-2-yl]methanol] | 134 ± 43.1 nM | 98.2 ± 25 nM | bioavailability (Pharmacokinetics in dogs): ~100%; clearance (Pharmacokinetics in dogs; single IV dose 1 mg/kg): 19.6 mL/min/kg; half-life (Pharmacokinetics in dogs; single IV dose 1 mg/kg): 10.3 h; half-life (Pharmacokinetics in dogs; single PO dose 2 or 3 mg/kg): 9.79 h; bioavailability [1]: 95%; clearance ([1]; single IV dose 1 mg/kg): 56.4 mL/min/kg; half-life ([1]; single IV dose 1 mg/kg): 4.29 h; half-life ([1]; single PO dose 2 or 3 mg/kg): 5.12 h |
| C[C@H]1CCN1c1nc(-c2cnn(CC(O)CO)c2)cc(C(F)(F)F)c1C#N (stereo partly drawn) [Example 24, 6-[1-(2,3-Dihydroxypropyl)pyrazol-4-yl]-2-[(2S)-2-methylazetidin-1-yl]-4-(trifluoromethyl)pyridine-3-carbonitrile] | 7.91 nM | 7.29 nM | – |
| C[C@H]1CCN1c1nc(-c2cn[nH]c2)cc(C(F)(F)F)c1C#N [Example 25, 2-[(2S)-2-Methylazetidin-1-yl]-6-(1H-pyrazol-4-yl)-4-(trifluoromethyl)pyridine-3-carbonitrile] | 13.6 ± 7.2 nM | 16.9 ± 9.7 nM | – |
| C[C@H]1CCN1c1nc(-c2cnn(C3CCOCC3)c2)cc(C(F)(F)F)c1C#N [Example 26, 2-[(2S)-2-Methylazetidin-1-yl]-6-(1-tetrahydropyran-4-ylpyrazol-4-yl)-4-(trifluoromethyl)pyridine-3-carbonitrile] | 28.4 nM | 22.2 nM | – |
| C[C@H]1CCN1c1nc(-c2cnn(C3CCNCC3O)c2)cc(C(F)(F)F)c1C#N (stereo partly drawn) [Example 27, 6-[1-(3-Hydroxy-4-piperidyl)pyrazol-4-yl]-2-[(2S)-2-methylazetidin-1-yl]-4-(trifluoromethyl)pyridine-3-carbonitrile] | 9.21 nM | 4.63 nM | – |
| C[C@H]1[C@H](O)CN1c1nc(-c2cnn(C3CN(C)C3)c2)cc(C(F)(F)F)n1 [Example 35, (2S,3R)-2-Methyl-1-[4-[1-(1-methylazetidin-3-yl)pyrazol-4-yl]-6-(trifluoromethyl)pyrimidin-2-yl]azetidin-3-ol] | 2.63 nM | 1.59 nM | – |
| CN1CC(n2cc(-c3cc(C(F)(F)F)nc(N4CC[C@@H]4CO)n3)cn2)C1 [Example 36, [(2R)-1-[4-[1-(1-Methylazetidin-3-yl)pyrazol-4-yl]-6-(trifluoromethyl)pyrimidin-2-yl]azetidin-2-yl]methanol] | 10 nM | 3.98 nM | – |
| C[C@H]1CCN1c1nc(N2C[C@@H]3[C@@H](CC(=O)O)[C@@H]3C2)cc(C(F)(F)F)n1 [PF-06835919] | – | – | whole liver fat (magnetic resonance imaging-proton density fat fraction) [2]: reduces whole liver fat |
